Assay results as given in patent US20210267978A1, “NANOPARTICLE FORMULATIONS OF IKE AND METHODS OF USE THEREOF” (The Trustees of Columbia University in the City of New York, priority 2018, published 2021).
Like-named read-outs stand apart in the source and are kept apart here.

Legend:
[1] = Pharmacokinetic analysis in NCG mice bearing SUDHL6 xenografts (plasma and tumor, LC-MS); type: in vivo; settings: SUDHL6-xenograft NCG mice; for AUC(0-t) / Cmax / Tmax / half-life / concentration at 24 h: mouse; for AUC(0-t) / Cmax / Tmax / half-life / concentration at 24 h / Tlast: single dose 50 mg/kg IP; for concentration at 24 h: read-out: Clast
Protocol: IKE was dissolved in 5% DMSO/95% HBSS at pH 4 to create a 5 mg/mL solution or 3 mg/mL solution. 5% DMSO/95% HBSS at pH 4 was used as vehicle 1. IKE PEG-PLGA nanoparticles and unfunctionalized PEG-PLGA nanoparticles (without IKE) (vehicle 2) prepared with a NanoAssemblr were dialyzed with deionized water overnight, and the water was changed at least twice. Dialyzed IKE-PEG-PLGA nanoparticles and unfunctionalized PEG-PLGA nanoparticles were concentrated by Amicon Ultra-15 Centrifugal Filter Units to create a solution with 80 mg/mL PEG-PLGA nanoparticles. All above solutions were sterilized by filtering through a 0.2 μm syringe filter.
NCG mice 6-weeks of age were injected with 10 million SUDHL-6 cells subcutaneously. Visible tumors appeared after 2 weeks. Tumor size was measured by electronic caliper every 2 days and calculated using the formula: 0.5×length×width^2. After another 2 weeks, mice were randomly separated into group of 3 mice per cage with roughly tumor size (1200 mm^3). Mice were dosed at 50 mg/kg IKE, 22 mg/kg IKE, 22 mg/kg IKE PEG-PLGA nanoparticles (equal to 600 mg/kg PEG-PLGA) using IP at one time and samples were collected at 0, 1, 2, 3, 4, 6, and 24 h with three mice per time point. Mice were dosed with Vehicle 1 and Vehicle 2 (600 mg/kg PEG-PLGA) by IP and samples were collected at 24 h. Mice were euthanized using a CO2 gas chamber before xenograft dissection and cardio puncture. Plasma samples were collected and analyzed as described above. Tumors were dissected and divided into 6 segments, frozen on dry ice, and stored at −80° C. Before IKE extraction, tumor tissue samples were thawed at room temperature and weighed. A 2.5-fold ratio of volume of phosphate-buffered saline (PBS) (mL/g) was added to the sample and homogenized using Bead Ruptor 4 at speed 4 for 30 sec. The homogenization step was repeated until the samples were homogenized well (final weight/volume was 0.4 g/mL). 100 μL of homogenized tissue (equal to 40 mg) was added to a new microfuge tube, 900 μL of acetonitrile was added. The samples were mixed for at least 5 minutes by rotating on a shaker and were sonicated for at least 30 sec prior to centrifugation for 10 min at 4,000×g and 4° C. The supernatant was removed and dried on the GeneVac overnight on the HPLC setting. After drying, the samples were resuspended in 100 μL of methanol and analyzed on the LC-MS with each sample analyzed twice. Technical replicates were averaged. The concentration of IKE in the sample was determined by comparison against a standard curve of IKE in the range of 25 to 2,500 ng/mL. Pharmacodynamic analysis of ferroptosis biomarkers is described in the RT-qPCR, glutathione, immunofluorescence, and lipidomics sections below. Pharmacokinetics parameters of IKE were assessed using Prism fitted with Lognormal of one phase exponential decay.

[2] = Erastin and IKE solubility measurements (nephelometry); type: physicochemical
Protocol: Solubility measurement samples were prepared in a 96-well Corning Costar plate with two at 1% and 5% DMSO v/v with a total sample volume of 200 μL in MilliQ water. A BMG Labtech NEPHELOstar nephelometer was used to measure turbidity of the samples with the following parameters per the instrument manufacturer: Gain=80, Laser Focus=2.50 mm, and Laser Intensity=90%. Samples were shaken in the nephelometer by orbital shaking for 3 s prior to the turbidity measurement. Sample values were blanked in the instrument software using the corresponding water and DMSO condition values. Turbidity 4000 NTU Calibration Standard-Formazin (Millipore-Sigma) was used as a positive control for all turbidity measurements. The turbidity of each sample was measured within 20 minutes of initial preparation. After the initial measurement, the sample plates were covered with aluminum sealing film and allowed to sit overnight at room temperature prior to re-measuring.

`CC(C)Oc1ccc(C(=O)Cn2ccnc2)cc1-n1c(CN2CCN(C(=O)COc3ccc(Cl)cc3)CC2)nc2ccccc2c1=O` [IKE, Imidazole ketone erastin] showed a highest plasma concentration ([1]; single dose 50 mg/kg i.p.) of 5.2 µg/mL, a highest tumor accumulation ([1]; single dose 50 mg/kg i.p.) of 2.5 µg/mL and an AUC(0-t) ([1]; plasma) of 10900 ng·h/mL. It also gave a Cmax ([1]; plasma) of 5180 ng/mL, a Tmax ([1]; plasma) of 1.35 h and a half-life ([1]; plasma) of 1.83 h. It also gave a concentration at 24 h ([1]; plasma) of 30 ng/mL, an AUC(0-t) ([1]; tumor tissue) of 9860 ng·h/mL and a Cmax ([1]; tumor tissue) of 2520 ng/mL. It also gave a Tmax ([1]; tumor tissue) of 3.3 h, a half-life ([1]; tumor tissue) of 3.5 h and a concentration at 24 h ([1]; tumor tissue) of 283 ng/mL. For the same molecule, the Tlast ([1]; plasma) was 24 h, the Tlast ([1]; tumor tissue) was 24 h and the “water solubility (in words)” value [2] was “soluble under acidic aqueous conditions, but not to the same degree under neutral aqueous conditions”.
